This passage reports inhibition results from ChEMBL document CHEMBL1129812, “Oestrone 3-O-(N-acetyl)sulphamate, a potential molecular probe of the active site of oestrone sulphatase” (Bioorg Med Chem Lett, 1997).

Assay [1] addresses T1, Steryl-sulfatase (Homo sapiens) (UniProt P08842).
T1 sequence (whole entry): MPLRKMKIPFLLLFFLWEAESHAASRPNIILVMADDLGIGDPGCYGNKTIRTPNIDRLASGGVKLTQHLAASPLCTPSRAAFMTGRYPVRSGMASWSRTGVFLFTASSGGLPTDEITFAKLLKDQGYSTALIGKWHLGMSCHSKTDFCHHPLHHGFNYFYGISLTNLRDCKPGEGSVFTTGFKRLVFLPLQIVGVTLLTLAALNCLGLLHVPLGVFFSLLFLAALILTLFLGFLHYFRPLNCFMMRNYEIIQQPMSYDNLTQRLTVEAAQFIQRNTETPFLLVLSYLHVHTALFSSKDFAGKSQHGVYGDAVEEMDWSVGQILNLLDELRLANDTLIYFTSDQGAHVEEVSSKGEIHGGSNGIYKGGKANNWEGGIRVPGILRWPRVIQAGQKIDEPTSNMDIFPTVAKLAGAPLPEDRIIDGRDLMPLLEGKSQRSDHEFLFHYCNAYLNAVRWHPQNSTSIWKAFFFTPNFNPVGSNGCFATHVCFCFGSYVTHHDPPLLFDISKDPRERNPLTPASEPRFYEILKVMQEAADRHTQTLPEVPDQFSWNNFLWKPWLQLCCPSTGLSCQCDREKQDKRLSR
Description: Compound was tested for percent inhibitory activity against Estrone sulfatase 1 (E1-STS) at 25 uM in placental microsomes. The following applies: Placenta.

Assay [2] concerns the target T1, Steryl-sulfatase (Homo sapiens). Description: Compound was tested for percent inhibitory activity against Estrone sulfatase 1 (E1-STS) at 0.20 uM in placental microsomes. The following applies: Placenta.
Assay [3] shares this target. Description: Compound was tested for percent inhibitory activity against Estrone sulfatase 1 (E1-STS) at 10 uM in placental microsomes. The following applies: Placenta.
Assay [4] shares this target. Description: Compound was tested for percent inhibitory activity against Estrone sulfatase 1 (E1-STS) at 0.10 uM in placental microsomes. Conditions: Placenta.
Assay [5] shares this target. Description: In vitro percentage inhibition of Estrone sulfatase 1 (EI-STS) activity at concentration of 0.1 micro M in intact MCF-7 breast cancer cells. The assay is classed as cell-based. Conditions: MCF7.
For assay [6] the target is unchanged. Description: Compound was tested for percent inhibitory activity against Estrone sulfatase 1 (E1-STS) at 100 uM in placental microsomes. The following applies: Placenta.
The target is the same in assay [7]. Description: Compound was tested for percent inhibitory activity against Estrone sulfatase 1 (E1-STS) at 50 uM in placental microsomes. Conditions: Placenta.
Assay [8] shares this target. Description: Compound was tested for percent inhibitory activity against Estrone sulfatase 1 (E1-STS) at 20 uM in placental microsomes. The following applies: Placenta.
Assay [9] shares this target. Conditions: Placenta; Microsomes; 1.0 uM.
Description: Compound was tested for percent inhibitory activity against Estrone sulfatase 1 (E1-STS) at 1.0 uM in placental microsomes
For assay [10] the target is unchanged. The following applies: Placenta; Microsomes; 0.1 uM.
Description: Compound was tested for percent inhibitory activity against Estrone sulfatase 1 (E1-STS) at 0.1 uM in placental microsomes
The target of assay [11] is T2, Steryl-sulfatase (Rattus norvegicus) (UniProt P15589).
T2 sequence (whole entry): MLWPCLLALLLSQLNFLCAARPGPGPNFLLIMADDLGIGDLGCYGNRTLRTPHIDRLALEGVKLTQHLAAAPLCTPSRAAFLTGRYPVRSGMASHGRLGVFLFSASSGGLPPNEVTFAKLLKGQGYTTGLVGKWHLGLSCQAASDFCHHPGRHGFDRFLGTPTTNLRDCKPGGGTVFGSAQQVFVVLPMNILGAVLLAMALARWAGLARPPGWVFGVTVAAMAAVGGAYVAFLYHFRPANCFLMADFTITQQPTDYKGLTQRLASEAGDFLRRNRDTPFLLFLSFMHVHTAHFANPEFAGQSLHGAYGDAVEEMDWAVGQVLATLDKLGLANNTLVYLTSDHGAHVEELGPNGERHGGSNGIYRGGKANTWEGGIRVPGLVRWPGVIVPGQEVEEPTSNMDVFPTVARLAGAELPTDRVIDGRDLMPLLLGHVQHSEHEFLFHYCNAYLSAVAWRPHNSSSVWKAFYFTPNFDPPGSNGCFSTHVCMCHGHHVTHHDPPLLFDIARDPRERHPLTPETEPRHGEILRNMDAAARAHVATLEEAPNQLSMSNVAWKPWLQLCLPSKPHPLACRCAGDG
Description: In vivo inhibition of rat liver Estrone sulfatase 1 (E1-STS) by oral or subcutaneous dose; Almost complete inhibition. In kind it is organism-based.

Assay [12] addresses T1, Steryl-sulfatase (Homo sapiens). The following applies: Placenta; Microsomes; 0.2 uM.
Description: Compound was tested for percent inhibitory activity against Estrone sulfatase 1 (E1-STS) at 0.2 uM in placental microsomes

Calls of active or inactive are those of the source. The calls are words filed in the database; no cut-off is given here.

Consider `CC(=O)NS(=O)(=O)Oc1ccc2c(c1)CCC1[C@@H]2CC[C@]2(C)C(=O)CC[C@@H]12` (single isomer, unassigned), for which the inhibition is more than 99% in [1], 30% in assay [2], 92% in [3] and 63% in [4].
On to `CN(C)S(=O)(=O)Oc1ccc2c(c1)CCC1[C@@H]2CC[C@]2(C)C(=O)CC[C@@H]12` (single isomer, unassigned), for which, in assay [5], the inhibition was 50%.
`CNS(=O)(=O)Oc1ccc2c(c1)CCC1[C@@H]2CC[C@]2(C)C(=O)CC[C@@H]12` (single isomer, unassigned) came in with an inhibition in assay [5] of 80%.
Regarding `C[C@]12CC[C@@H]3c4ccc(OS(=O)(=O)N(Cc5ccccc5)Cc5ccccc5)cc4CCC3[C@@H]1CCC2=O` (single isomer, unassigned), the inhibition in [6] came out at 75%; in assay [7], 63%; in assay [8], 43%.
Taken in the same sequence, the figures for `C[C@]12CC[C@@H]3c4ccc(OS(=O)(=O)N5CCCCC5)cc4CCC3[C@@H]1CCC2=O` (single isomer, unassigned) were 20%, 17% and 13%.
For the compound `C[C@]12CC[C@@H]3c4ccc(OS(N)(=O)=O)cc4CCC3[C@@H]1CCC2=O` (single isomer, unassigned), the inhibition in assay [9] is 95%; in assay [10] it was 50%; in assay [12], 82%. The inhibition entry in assay [11] was “Active”.

The term inhibition denotes the drop in the measured response relative to a control, in per cent.
